# Source: patent publication US4248887A, “Antibacterial compounds, processes for their preparation and compositions containing them” (priority 1978, dated 1981)
# Where two headings read alike, the source gives them in different places.
# Experiments:
# M. dispar NCTC 10125 = test: Anti-mycoplasma MIC; assay type: cell-based; settings: M. dispar NCTC 10125; Broth (Friis' broth, microtiter method); read-out: MIC
# Bord. bronchiseptica BO8 = test: MIC against veterinary bacteria; settings: Bordetella bronchiseptica
# Past. multocida PA2 = test: MIC against veterinary bacteria; settings: Pasteurella multocida
# Strep. agalactiae SPA1 = test: MIC against veterinary bacteria; settings: Streptococcus agalactiae
# M. pneumoniae 427a = test: Anti-mycoplasma MIC; assay type: cell-based; settings: Mycoplasmoides pneumoniae, read-out: MIC
# Strep. dysgalactiae SPD1 = test: MIC against veterinary bacteria; settings: Streptococcus dysgalactiae
# Past. haemolytica PA5 = test: MIC against veterinary bacteria; settings: Mannheimia haemolytica
# M. pulmonis JB = test: Anti-mycoplasma MIC; assay type: cell-based; settings: Mycoplasmopsis pulmonis, read-out: MIC
# M. synoviae ATCC 25204 = test: Anti-mycoplasma MIC; assay type: cell-based; settings: Mycoplasmopsis synoviae, ATCC25204; M. synoviae ATCC 25204; Agar (serial dilution in Friis' agar); read-out: MIC
# Past. multocida 1633 = test: MIC by serial dilution in nutrient agar (human bacteria); settings: Pasteurella multocida
# Bord. bronchiseptica BO9 = test: MIC against veterinary bacteria; settings: Bordetella bronchiseptica
# [1] = test system: M. hyosynoviae ATCC 25591; test: Anti-mycoplasma MIC; assay type: cell-based; settings: M. hyosynoviae ATCC 25591; Agar (serial dilution in Friis' agar); read-out: MIC
# Strep. pyogenes C 2761 = test: MIC by serial dilution in nutrient agar (human bacteria); settings: Streptococcus pyogenes, C2761
# M. hyorhinis ATCC 23234 = test: Anti-mycoplasma MIC; assay type: cell-based; settings: Mesomycoplasma hyorhinis, ATCC23234; M. hyorhinis ATCC 23234; Agar (serial dilution in Friis' agar); read-out: MIC
# Strep. pyogenes A 64/848 = test: MIC by serial dilution in nutrient agar (human bacteria); settings: Streptococcus pyogenes, A64/848
# Staph. aureus Oxford = test: as above; settings: Staphylococcus aureus
# M. fermentans MWKL4 = test: Anti-mycoplasma MIC; assay type: cell-based; settings: Mycoplasmopsis fermentans, read-out: MIC
# M. bovis NCTC 10131 = test: microbe, parasite or virus in culture; assay type: cell-based; settings: NCTC10131
# [2] = test system: Staph. aureus B4 (pen resistant); test: MIC against veterinary bacteria; settings: Staphylococcus aureus
# M. gallisepticum S6 = test: Anti-mycoplasma MIC; assay type: cell-based; settings: Mycoplasmoides gallisepticum; M. gallisepticum S6; Agar (serial dilution in Friis' agar); read-out: MIC
# H. influenzae Q1 = test: MIC by serial dilution in nutrient agar (human bacteria); settings: Haemophilus influenzae
# N. catarrhalis 1502 = test: as above; settings: Neisseria
# [3] = test system: M. bovigenitalium ATCC 14173; test: Anti-mycoplasma MIC; assay type: cell-based; settings: M. bovigenitalium ATCC 14173; Agar (serial dilution in Friis' agar); read-out: MIC
# Strep. pyogenes B 2788 = test: MIC by serial dilution in nutrient agar (human bacteria); settings: Streptococcus pyogenes, B2788
# Staph. aureus Russell = test: as above; settings: Staphylococcus aureus
# B. subtilis = test: as above; settings: Bacillus subtilis
# [4] = test system: Staph. aureus 152 (pen sensitive); test: MIC against veterinary bacteria; settings: Staphylococcus aureus
# [5] = test system: M. arthritidis ATCC 14124; test: Anti-mycoplasma MIC; assay type: cell-based; settings: M. arthritidis ATCC 14124; Agar (serial dilution in Friis' agar); read-out: MIC
# Past. multocida PA1 = test: MIC against veterinary bacteria; settings: Pasteurella multocida
# [6] = test system: M. alkalescens NCTC 10135; test: Anti-mycoplasma MIC; assay type: cell-based; settings: M. alkalescens NCTC 10135; Agar (serial dilution in Friis' agar); read-out: MIC
# [7] = test system: M. suipneumoniae J2206/183b; test: Anti-mycoplasma MIC; assay type: cell-based; settings: Mesomycoplasma hyopneumoniae
# Strep. uberis SPU1 = test: MIC against veterinary bacteria; settings: Streptococcus uberis
# M. dispar H225 = test: Anti-mycoplasma MIC; assay type: cell-based; settings: M. dispar H225; Broth (Friis' broth, microtiter method); read-out: MIC
# M. pneumoniae ATCC 15492 = test: Anti-mycoplasma MIC; assay type: cell-based; settings: Mycoplasmoides pneumoniae, ATCC15492, M. pneumoniae ATCC 15492, read-out: MIC
# M. bovis ATCC 25025 = test: microbe, parasite or virus in culture; assay type: cell-based; settings: ATCC25025
# Strep. pneumoniae CN33 = test: MIC by serial dilution in nutrient agar (human bacteria); settings: Streptococcus pneumoniae
# M. suipneumoniae Str. 11 = test: Anti-mycoplasma MIC; assay type: cell-based; settings: Mesomycoplasma hyopneumoniae; M. suipneumoniae Str. 11; Broth (Friis' broth, microtiter method); read-out: MIC
# H. influenzae Wy21 = test: MIC by serial dilution in nutrient agar (human bacteria); settings: Haemophilus influenzae
# [8] = Agar (serial dilution in Friis' agar)
# [9] = Broth (Friis' broth, microtiter method)
compound,measurement,setting,value
"C=CCOC(=O)/C=C(\C)CC1OCC(C/C=C/C(C)C(C)O)C(O)C1O (stereo not drawn) [Allyl, Allyl Monate C]",MIC,M. dispar NCTC 10125,0.156 µg/mL
same,MIC,Bord. bronchiseptica BO8,> 80 µg/mL
same,MIC,Past. multocida PA2,0.312 µg/mL
same,MIC,Strep. agalactiae SPA1,5 µg/mL
same,MIC,M. pneumoniae 427a; [8],5 µg/mL
same,MIC,M. pneumoniae 427a; [9],10 µg/mL
same,MIC,Strep. dysgalactiae SPD1,5 µg/mL
same,MIC,Past. haemolytica PA5,20 µg/mL
same,MIC,M. pulmonis JB; [8],0.156 µg/mL
same,MIC,M. pulmonis JB; [9],0.039 µg/mL
same,MIC,M. synoviae ATCC 25204,0.039 µg/mL
same,MIC,Past. multocida 1633,2.5 µg/mL
same,MIC,Bord. bronchiseptica BO9,40 µg/mL
same,MIC,[1],1.25 µg/mL
same,MIC,Strep. pyogenes C 2761,10 µg/mL
same,MIC,M. hyorhinis ATCC 23234,2.5 µg/mL
same,MIC,Strep. pyogenes A 64/848,2.5 µg/mL
same,MIC,Staph. aureus Oxford,0.1 µg/mL
same,MIC,M. fermentans MWKL4; [8],0.156 µg/mL
same,MIC,M. fermentans MWKL4; [9],0.039 µg/mL
same,MIC,M. bovis NCTC 10131,0.078 µg/mL
same,MIC,[2],0.625 µg/mL
same,MIC,M. gallisepticum S6,> 10 µg/mL
same,MIC,H. influenzae Q1,0.5 µg/mL
same,MIC,N. catarrhalis 1502,0.05 µg/mL
same,MIC,[3],0.078 µg/mL
same,MIC,Strep. pyogenes B 2788,2.5 µg/mL
same,MIC,Staph. aureus Russell,1 µg/mL
same,MIC,B. subtilis,1 µg/mL
same,MIC,[4],0.625 µg/mL
same,MIC,[5],> 10 µg/mL
same,MIC,Past. multocida PA1,2.5 µg/mL
same,MIC,[6],0.078 µg/mL
same,MIC,"[7]; M. suipneumoniae J2206/183b, Broth (Friis' broth, microtiter method), read-out: MIC",1.25 µg/mL
same,MIC,Strep. uberis SPU1,1.25 µg/mL
same,MIC,M. dispar H225,0.078 µg/mL
same,MIC,M. pneumoniae ATCC 15492; [8],10 µg/mL
same,MIC,M. pneumoniae ATCC 15492; [9],10 µg/mL
same,MIC,M. bovis ATCC 25025,0.078 µg/mL
same,MIC,Strep. pneumoniae CN33,2.5 µg/mL
same,MIC,M. suipneumoniae Str. 11,0.312 µg/mL
"C/C(=C\C(=O)OCCCCCCO)CC1OCC(C/C=C/C(C)C(C)O)C(O)C1O (stereo not drawn) [6-Hydroxyhexyl, 6-Hydroxyhexyl Monate C]",MIC,M. dispar NCTC 10125,0.156 µg/mL
same,MIC,Bord. bronchiseptica BO8,> 80 µg/mL
same,MIC,Past. multocida PA2,2.5 µg/mL
same,MIC,Strep. agalactiae SPA1,5 µg/mL
same,MIC,M. pneumoniae 427a; [8],1.25 µg/mL
same,MIC,M. pneumoniae 427a; [9],0.625 µg/mL
same,MIC,Strep. dysgalactiae SPD1,1.25 µg/mL
same,MIC,Past. haemolytica PA5,40 µg/mL
same,MIC,M. pulmonis JB; [8],0.039 µg/mL
same,MIC,M. pulmonis JB; [9],< 0.02 µg/mL
same,MIC,M. synoviae ATCC 25204,< 0.02 µg/mL
same,MIC,Past. multocida 1633,1 µg/mL
same,MIC,Bord. bronchiseptica BO9,5 µg/mL
same,MIC,[1],0.078 µg/mL
same,MIC,Strep. pyogenes C 2761,5 µg/mL
same,MIC,M. hyorhinis ATCC 23234,1.25 µg/mL
same,MIC,Strep. pyogenes A 64/848,1 µg/mL
same,MIC,Staph. aureus Oxford,0.2 µg/mL
same,MIC,M. fermentans MWKL4; [8],0.078 µg/mL
same,MIC,M. fermentans MWKL4; [9],< 0.02 µg/mL
same,MIC,M. bovis NCTC 10131,< 0.02 µg/mL
same,MIC,[2],1.25 µg/mL
same,MIC,M. gallisepticum S6,10 µg/mL
same,MIC,H. influenzae Q1,0.2 µg/mL
same,MIC,[3],0.039 µg/mL
same,MIC,Strep. pyogenes B 2788,5 µg/mL
same,MIC,Staph. aureus Russell,1 µg/mL
same,MIC,B. subtilis,0.5 µg/mL
same,MIC,[4],1.25 µg/mL
same,MIC,[5],5 µg/mL
same,MIC,Past. multocida PA1,2.5 µg/mL
same,MIC,[6],< 0.02 µg/mL
same,MIC,[7]; J2206/183B,1.25 µg/mL
same,MIC,H. influenzae Wy21,0.2 µg/mL
same,MIC,Strep. uberis SPU1,0.312 µg/mL
same,MIC,M. dispar H225,0.156 µg/mL
same,MIC,M. pneumoniae ATCC 15492; [8],1.25 µg/mL
same,MIC,M. pneumoniae ATCC 15492; [9],0.625 µg/mL
same,MIC,M. bovis ATCC 25025,< 0.02 µg/mL
same,MIC,M. suipneumoniae Str. 11,0.625 µg/mL
